Data on one compound can be found in patent publication US6986896B2, “Method of treating fungal conditions of the skin” (Bradley Pharmaceuticals, Inc., priority 2002, dated 2006).

The subject of the experiment is Trychophyton rubrum. Put plainly: Percent kill rate of topical products inoculated with T. rubrum (residual microbial content by serial dilution). Type of experiment: cell-based.

Procedure: Various compositions, e.g. creams, lotions, and gels, containing urea as the sole active ingredient at various concentrations were tested against Trychophyton rubrum, a fungus typically implicated in Moccasin tinea pedis and onychomycosis, and compared to traditional antifungal compositions. A solution of the individual or combination products were inoculated with a known starting concentration of T. rubrum. These solutions were then retested at the specific time intervals to determine the residual microbial content.
The decrease in the residual microbial content calculated as a percentage of its initial starting concentration is the percent kill rate reported in the following table.

Regarding `NC(N)=O` [urea], the “antifungal activity (conclusion from the kill rate tests)” value was “effective antifungal agent”.
